Experiment [1] concerns TLR2 signaling in primary human umbilical vein endothelial cells. Nature of the experiment: Cytokine response to TLR2 agonism (Pam3CysK4) in primary HUVEC (ELISA). Conditions: for IL-8 response to TLR2 (Pam3CysK4) stimulation, in words: summary of Table 22. Format: cell-based. An excerpt:
It has been reported in the literature that that ERK5 mediates TLR2-dependent inflammatory signaling in several cell types including human umbilical vein endothelial cells (HUVEC). See Wilhelmsen et al., J Biol Chem. 2012; 287:26478-94. Wilhelmsen et al. further reported that MEK1 negatively regulates TLR2 signaling in HUVECs, with pharmacological inhibition of MEK1 augmenting (IL-6, G-CSF, GM-CSF) or not changing (IL-8) pro-inflammatory cytokine release in response to TLR2 stimulation.
(§1) In this example, the following commercially available inhibitors were tested:
(§2) The results were compared with test compound 61.
(§3) Pooled primary human umbilical vein endothelial cells (HUVEC) were obtained from Lonza (Allendale, N.J.) and maintained in either complete EGM-2 defined media (Lonza) or Medium 200 supplemented with Low Serum Growth Supplement (Life Technologies, Grand Island, N.Y.). Cells at low passage (<5) were seeded at 4e5 cells/ml and allowed to adhere overnight at 37° C. in a humidified atmosphere at 5% CO2. Cells were pre-treated with test compounds for 1 h prior to TLR2 or TLR4 stimulation. To test for the effects of TLR2 agonism, the TLR2 agonist peptide Pam3CysK4 (Santa Cruz Biotechnology, Dallas, Tex.) was used at 10 μg/ml. PHC-SKKK (Enzo Life Sciences, Farmingdale, N.Y.) served as the negative control peptide. To test for the effects of TLR4 agonism, LPS from E. coli 0111:B4 (EMD Millipore, Billerica, Mass.) was used at 100 ng/ml. Cells were incubated for 22 hr, after which the supernatant was collected and analyzed for cytokine concentrations by ELISA (Life Technologies). Absorbance at 450 nm was read using the Wallac 1420 Victor^2 multilabel microplate reader (Perkin Elmer, Waltham, Mass.).
A general note: In an ELISA, binding on a coated surface is turned into a signal by an enzyme label.

The subject of experiment [2] is TLR4 signaling in primary human umbilical vein endothelial cells. Description: Cytokine response to TLR4 agonism (LPS) in primary HUVEC (ELISA). Format: cell-based. The conditions noted are these: for IL-8: 22 hr; for IL-6 response, in words: summary of Table 24. How it is done: as §1, §2, §3
Experiment [3] relates to primary asthmatic human bronchial epithelial cells. Nature of the experiment: IL-17A- or IL-17F-mediated cytokine response by primary asthmatic human bronchial epithelial cells. Format: cell-based. The conditions noted are these: Epithelial cell, 0.25 μM, positive control, data not shown, read-out: inhibition of measured cytokines. The protocol: The virally immortalized, normal human bronchial epithelial cell line BEAS-2B was purchased from ATCC (Manassas, Va.). Primary bronchial epithelial cells isolated from a patient diagnosed with asthma were obtained from Lonza (Allendale, N.J.). Both cells were maintained in complete Bronchial Epithelial Cell Growth Medium (BEGM) (Lonza). Cells were seeded at 1e5 cells/ml and incubated at 37° C. in a humidified atmosphere at 5% CO2 overnight to adhere. Cells were pre-treated with test compounds (10 μM down by ⅕ in a 3- or 4-point serial dilution series) for 1 h at 37° C. in a humidified atmosphere at 5% CO2. DMSO at a final concentration of 0.1% served as the non-inhibited control. Budesonide (Selleck Chemicals, Houston, Tex.), a clinically approved glucocorticoid steroid for the treatment of asthma, was tested as a positive control at 0.25 μM. Cells were stimulated with 50 ng/ml of either human recombinant IL-17A or IL-17F (eBioscience, San Diego, Calif.), for 48 h. Supernatant was then collected and analyzed for cytokine concentrations using the Bio-Plex Pro Human Cytokine 17-Plex Panel (Bio-Rad Laboratories, Hercules, Calif.) according to the manufacturer's instructions. Magnetic beads were measured on the Bio-Plex MAGPIX multiplex reader instrument using the accompanying xPONENT 4.2 acquisition software (Bio-Rad Laboratories). Data were analyzed via the Bio-Plex Manager software v6.1 (Bio-Rad Laboratories). For the primary asthmatic bronchial epithelial cells, five (+IL-17F) to thirteen (+IL-17A) cytokines were in range of detection under the conditions used. […] Select cytokines were analyzed for comparison using the BEAS-2B cell line.
BLQ: cytokine levels were below limits of quantitation.

The test system of experiment [4] is collagen-induced arthritis mouse model. Nature of the experiment: Collagen-induced arthritis (CIA) mouse model: histopathology of tibiofemoral and tarsal/phalangeal joints. Format: in vivo, mouse (DBA/1J).
For experiment [5] the test system is unchanged. Description: Collagen-induced arthritis (CIA) mouse model: in-life disease score, paw thickness. Conditions: for change in group average disease score - mean, Day versus Day 21 (start of treatment): Tofacitinib 15 mg/kg PO BID from D21. It is filed as in vivo, mouse (DBA/1J).
[6] abbreviates: 5 μM inhibitor, +10 μg/ml PHC-SKKK (negative control peptide), 22 hr.
The mark [7] stands for this setting: 5 μM inhibitor, +10 μg/ml Pam3CysK4, 22 hr.
Where [8] appears, read: 10 μM inhibitor, +100 ng/ml LPS.
[9] abbreviates: 10 μM inhibitor, No Stimulation.
Setting [10] is: Group 2 (n=10): Tofacitinib 15 mg/kg PO BID D21-D42.
Where [11] appears, read: Group 2: Tofacitinib 15 mg/kg PO BID D21-D42.

Structures are written as SMILES. Some results are limits rather than exact numbers.

`O=C(NC[C@H](O)CO)c1ccncc1Nc1ccc(I)cc1F` [AS703026]: the “IL-8” value in experiment [1] (setting [6]) worked out at 0 ± 23 pg/mL; in experiment [1] (setting [7]), 732 ± 36 pg/mL; in experiment [2] (5 μM inhibitor, +100 ng/ml LPS), 1970 ± 126 pg/mL. Also, the “IL-8 response to TLR2 (Pam3CysK4) stimulation, in words” value (shortened to “IL-8 response to TLR2”) in experiment [1] is listed as “moderate IL-8 augmentation”. For the same compound, the “G-CSF” value was 90 ± 13 pg/mL in experiment [2] (setting [8]) and 30 ± 1 pg/mL in experiment [2] (setting [9]). Also, the “IL-6” value in experiment [2] (setting [8]) turned out to be 1368 ± 169 pg/mL; in experiment [2] (setting [9]), 529 ± 20 pg/mL. Further, in experiment [2], the “IL-6 response, in words” value is on record as “Cytokine augmentation was observed”.

For the compound `CCCC1O[C@@H]2C[C@H]3[C@@H]4CCC5=CC(=O)C=C[C@]5(C)[C@H]4[C@@H](O)C[C@]3(C)[C@]2(C(=O)CO)O1` (stereo partly drawn) [Budesonide, reference compound], the inhibition – broadly, the change of the read-out against control, counted positive when it falls – at […] in experiment [3] was under 50%.

On to `C[S+]([O-])c1ccc(-c2nc(-c3ccncc3)c(-c3ccc(F)cc3)[nH]2)cc1` (stereo not drawn) [SB203580], for which the “IL-8” value turned out to be 54 ± 12 pg/mL in experiment [1] (10 μM inhibitor, +10 μg/ml PHC-SKKK (negative control peptide), 22 hr); 450 ± 23 pg/mL in experiment [1] (10 μM inhibitor, +10 μg/ml Pam3CysK4, 22 hr); 1526 ± 54 pg/mL in experiment [2] (setting [8]). Moreover, the “IL-8 response to TLR2” value in experiment [1] is given as “reduced the IL-8 response”. The “G-CSF” value in experiment [2] (setting [8]) was determined as 318 ± 33 pg/mL; in experiment [2] (setting [9]) it was 7 ± 9 pg/mL. Moreover, the “IL-6” value in experiment [2] (setting [8]) was 112 ± 10 pg/mL; in experiment [2] (setting [9]), 18 ± 5 pg/mL. For the same compound, the “IL-6 response, in words” value in experiment [2] is “reduced”.

As for `C[C@@H]1CCN(C(=O)CC#N)C[C@@H]1N(C)c1ncnc2[nH]ccc12` [Tofacitinib, reference compound], in experiment [4] (Day 42, H&E), the “histopathology of hind-limb joints (knee, paw/tarsal), in words” value was “less effective at mitigating cartilage and periosteal erosion at the knee and ulceration and synovial hyperplasia than 46”. For the same compound, the “Animals with normal tarsal joints (% of total n in group)” value in experiment [4] (setting [10]) came out at 40%. In addition, the “Number of animals with normal tarsal joints” value in experiment [4] (setting [10]) is recorded as 4. Besides, the “Tibiofemoral joint score: cartilage erosion/ulceration” value in experiment [4] (setting [11]) is listed as 16.3. In addition, in experiment [4] (setting [11]), the “Tibiofemoral joint score: inflammation” value amounted to 16.3. Also, in experiment [4] (setting [11]), the “Tibiofemoral joint score: periosteal proliferation/erosion” value was determined as 7.8. The “Tibiofemoral joint score: synovial hyperplasia” value in experiment [4] (setting [11]) is 5.0. For the same compound, the “change in group average disease score - mean, Day versus Day 21 (start of treatment)” value in experiment [5] (Day 21) is recorded as 0.0; in experiment [5] (Day 24), 0.3; in experiment [5] (Day 26) it was 0.9; in experiment [5] (Day 28) it was 1.8; in experiment [5] (Day 31), 2.3; in experiment [5] (Day 33), 2.6. Besides, the “change in group average disease score - mean, Day versus Day 21 (start of treatment)” value came to 2.7 in experiment [5] (Day 35), 2.2 in experiment [5] (Day 37) and 2.5 in experiment [5] (Day 39). The “percent reduction in overall disease and total paw scores” value in experiment [5] (treatment Day 21-42, Tofacitinib 15 mg/kg BID PO, doses in Table 28) is recorded as “about 55%”.

In the case of `CCOc1cc(N2CCC(O)CC2)ccc1Nc1ncc2c(n1)N(C)c1ccccc1C(=O)N2C` [XMD8-92], the “IL-8” value is 0 ± 25 pg/mL in experiment [1] (setting [6]); 199 ± 11 pg/mL in experiment [1] (setting [7]); 1249 ± 42 pg/mL in experiment [2] (5 μM inhibitor, +100 ng/ml LPS). Besides, the “IL-8 response to TLR2” value in experiment [1] is given as “reduced the IL-8 response”. Also, the “G-CSF” value in experiment [2] (5 μM inhibitor, +100 ng/ml LPS) was found to be 111 ± 6 pg/mL; in experiment [2] (5 μM inhibitor, No Stimulation), 0 ± 1 pg/mL. Moreover, the “IL-6” value in experiment [2] (5 μM inhibitor, +100 ng/ml LPS) amounted to 170 ± 21 pg/mL; in experiment [2] (5 μM inhibitor, No Stimulation) it was 20 ± 1 pg/mL. For the same compound, in experiment [2], the “IL-6 response, in words” value is given as “reduced”.

The values above are taken from patent publication US20170008888A1 (KYORIN PHARMACEUTICAL CO., LTD., priority 2014, published 2017).
